Source: patent US20050043369A1, “Bactericidal antimicrobial methods and compositions for use in treating gram positive infections” (Protez Pharmaceuticals Inc., priority 2000, published 2005)
Like-named read-outs stand apart in the source and are kept apart here. Each block holds one compound with its values, some of them ahead of it.

What was measured:
[1] = system: S. aureus SA 29213; assay: 55Fe transport assay (intracellular iron accumulation); type: cell-based, Staphylococcus aureus; settings: compound at 2 μg/ml; S. aureus SA 29213
Description: Next, investigated was whether INF 401 affects intracellular iron accumulation. An ^55Fe transport assay (modified from Sebulsky, 2000) was used to examine the ability of INF 401 to transport iron inside the cell. Briefly, exponentially growing cells were diluted to OD600 0.1 in LB, incubated with ^55FeCl3 for 30 min at 37° C., washed and counted in scintillation fluid using the tritium channel of a scintillation system. […] However, the presence of INF 401 in either the absence or presence of antibiotic led to a dramatic increase in iron accumulation (209,215 and 231,621 DPM, respectively).
(§1) Activity of the compound is depicted as the minimal concentration required to kill 99.9% of S. aureus in the presence of 4 μg/ml erythromycin.

[2] = system: S. aureus strain SA1199; assay: Screening and titration of potentiators with erythromycin (4 μg/ml), viability read by transfer to fresh medium; type: cell-based, Staphylococcus aureus; settings: for Activity (minimal concentration required to kill 99.9% of S. aureus): in the presence of 4 μg/ml erythromycin
Description: In an exemplary screening assay, in order to identify a candidate acyl hydrazide, oxy amide or 8-hydroxy quinoline composition as an antibacterial agent potentiator, the S. aureus strain SA1199 may be used. The procedure for screening is as follows: logarithmically growing S. aureus SA1199 are inoculated to a final OD600 of 0.002 into 150 μl of LB medium containing a bacteriostatic concentration of an antimicrobial agent for that strain, for example, erythromycin (4 μg/ml) at four times the Minimal Inhibitory
Concentration (MIC). […] In preliminary studies the inventors determined that under these conditions up to 2000 viable cells were transferred after incubation with erythromycin. As confirmed by broth microdilution, at least a 1000-fold reduction in viability was required to see no visible growth after 20 hours. Acyl hydrazide, oxy amide or 8-hydroxy quinoline antibiotic potentiators may be identified as those compounds that increase the bactericidal effect of the erythromycin.
The macrolide erythromycin was chosen in the initial screen for two reasons: first, its mechanism of inhibition of protein synthesis is well characterized and second, as a macrolide, erythromycin is representative of an expanding class of agents which includes the second most prescribed antibiotic, azithromycin.
In preliminary studies the inventors determined that under these conditions up to 2000 viable cells were transferred after incubation with erythromycin. As confirmed by broth microdilution, at least a 1000-fold reduction in viability was required to see no visible growth after 20 h.
Next the activity of the hit compounds was compared by titration of the compounds in the presence of erythromycin at 4 μg/ml as described above.
as §1

[3] = system: S. aureus SA1199; assay: Checkerboard two-fold broth microdilution, MIC and MBC; type: cell-based, Staphylococcus aureus; settings: for MBC^a = MBC in the absence of INF 401 / MBC: antibiotic alone; for MBC^b = MBC in the presence of 5 μg/ml of INF 401: plus 5 μg/ml INF 401; for bactericidal concentration of antibiotic alone as multiple of MIC: absence of INF 401
Description: Checkerboard titration was performed with INF 401 and erythromycin to quantitate the effects of the combination on Staphylococcal growth using two-fold serial broth microdilution. After overnight incubation, cells were transferred to fresh medium, as described above, to determine those combinations that were bactericidal to S. aureus. […] Although not determined according to NCCLS recommended procedures ([…]), the inventors considered this the Minimal Bactericidal Concentration (MBC).
The inventors next evaluated whether INF 401 was bactericidal in combination with other protein synthesis inhibitors which are bacteriostatic to S. aureus. Checkerboard studies were performed with two-fold dilutions of each antibiotic in combination with INF 401 using the assay described above in Example 2. After overnight incubation the MIC of each antibiotic was determined by visualization of bacterial growth. […] The MBC of each antibiotic was determined as described in Example 2 in the absence or presence of INF 401.

[4] = system: S. aureus SA1199; assay: as above; type: cell-based, Staphylococcus aureus; settings: Table 2, plus 10 μg/ml INF 402, unit not given
[5] = system: S. pneumoniae; assay: Bactericidal activity (MBC) of translational inhibitors with or without INF 401 in S. pneumoniae; type: cell-based, Streptococcus pneumoniae; settings: antibiotic alone
Description: It would be desirable that an antibiotic potentiator of the present invention is active not only in S. aureus but also in other bacterial pathogens. The inventors have begun studies to investigate whether INF 401 can also potentiate the activity of translational inhibitors in another Gram positive pathogen, S. pneumoniae.

[6] = system: S. aureus (SA1199); assay: Time kill studies (CFU counts); type: cell-based, Staphylococcus aureus
Description: FIG. 5A, FIG. 5B and FIG. 5C. […]
The initial inoculum number was determined by plating an appropriate dilution on LB agar plates and determining the number of colony forming units (CFUs). At different time points an aliquot was withdrawn from each tube and cell viability was determined by plating an appropriate dilution and counting CFUs after overnight incubation.

[7] = system: S. aureus strain ATTC 29213; assay: Characterization of killing by INF 401 plus chloramphenicol (viability, morphology, protein, DNA, metal dependence); type: cell-based, Staphylococcus aureus; settings: reversed by exogenous Fe3+
Description: Time kill study of the effect of NF 401 in combination with chloramphenicol. Exponentially growing cells (S. aureus strain 29213) were diluted to OD600 0.1 in LB supplemented with 20 μg/ml of chloramphenicol (Cm) in the presence or absence of INF 401 (2 μg/ml) and incubated with shaking at 37° C. At indicated time points cells were harvested, washed with LB and plated on LB agar plates. Number of colony forming units (CFUs) was determined after overnight incubation.
Time kill study of the effect of iron on the bactericidal activity of INF 401. S. aureus strain 29213 was grown overnight in iron-limited Staphylococcal Siderophore Detection (SSD) medium (Heinrichs, 1999) supplemented with 2 μM FeCl3, washed with SSD and diluted 1:100 into the fresh medium containing 0, 2 or 50 μm FeCl3. Exponentially growing cells were diluted to OD600 0.01 in the corresponding medium supplemented when indicated with 20 μg/ml of chloramphenicol (Cm) and 2 μg/ml of INF 401. At 0, 1, 2 and 3.5 hours cells were plated in different dilutions to the LB agar plates and number of colony forming units (CFUs) was counted next day.

[8] = system: S. aureus ATCC 29213; assay: MBEC assay system, checkerboard: planktonic MIC and biofilm MBEC; type: cell-based, Staphylococcus aureus; settings: INF 401 at 0.3 μg/ml where in label
Description: These studies were performed via the method of Dr. Howard Ceri (University of Calgary), who recently developed a method for the routine determination of the antibiotic susceptibility of biofilms. To date, the inventors have tested the effect of the combination of INF 401 on the ability of either clindamycin or rifampin to eradicate S. aureus biofilms in vitro. S. aureus ATCC 29213 was selected for the study as previous studies of this isolate as a biofilm had been conducted and the isolate served as a quality assurance organism for NCCLS standardization of antibiotic testing. Biofilms were formed as previously described for this organism (Ceri et al., 1999) using the MBEC™ assay system. Checkerboard studies were performed with each antibiotic versus INF 401.

[9] = Table 1, S. aureus SA1199, unit not given
[10] = Staphylococcus aureus, SA1199, read-out: MBC^a = MBC in the absence of INF 401, Table 1, S. aureus SA1199, unit inferred
[11] = Staphylococcus aureus, SA1199, read-out: MBC^a = MBC in the absence of INF 401, Table 2, S. aureus SA1199, unit inferred
[12] = Table 2, S. aureus SA1199, unit inferred
[13] = Staphylococcus aureus, Table 1, S. aureus SA1199, unit inferred, read-out: MBC^a = MBC in the absence of INF 401
[14] = Staphylococcus aureus, Table 1, S. aureus SA1199, unit inferred, read-out: MIC

Structure (SMILES): CCOc1cccc(/C=N/NC(=O)Cc2ccc(C)cc2)c1O [drawing 37]
^55Fe Accm. [1]: 1,200 DPM
Activity (minimal concentration required to kill 99.9% of S. aureus) [2]: >10 µg/mL

Structure (SMILES): COc1ccc(C(=O)N(O)c2ccccc2)cc1 [INF 402]
lowest concentration at which the potentiator is active (titration in the presence of erythromycin) ([2]; erythromycin 4 μg/ml, S. aureus SA1199): 1.25 to 2.5 µg/mL
effect on viability of S. aureus in combination with a bacteriostatic concentration of erythromycin ([2]; library screen hit): reduced the viability

Structure (SMILES): O=C(Cc1ccccc1)N/N=C/c1c(O)ccc2ccccc12
^55Fe Accm. [1]: 36,941 DPM
Activity (minimal concentration required to kill 99.9% of S. aureus) [2]: 0.15 µg/mL

Structure (SMILES): COc1cc(Cc2cnc(N)nc2N)cc(OC)c1OC [Trimethroprim]
MBC^a = MBC in the absence of INF 401 ([3]; Table 1, S. aureus SA1199, unit inferred): 32 µg/mL
MBC^b = MBC in the presence of 5 μg/ml of INF 401 [3, 9]: 8
MIC [3, 9]: 1

Structure (SMILES): CC[C@H]1OC(=O)[C@H](C)[C@@H](O[C@H]2C[C@@](C)(OC)[C@@H](O)[C@H](C)O2)[C@H](C)[C@@H](O[C@@H]2O[C@H](C)C[C@H](N(C)C)[C@H]2O)[C@](C)(O)C[C@@H](C)C(=O)[C@H](C)[C@@H](O)[C@]1(C)O [Erythromycin]
MBC^b = MBC in the presence of 10 μg/ml of INF 402 [4]: 1
bactericidal concentration in the absence of INF 401 as multiple of MIC [5]: 1 ×MIC
effect of single agent on growth of S. aureus in time kill study ([6]; INF 401 5 μg/ml alone, erythromycin 2×MIC alone): bacteriostatic
bactericidal concentration of antibiotic alone as multiple of MIC ([3]; S. aureus): 16-32 ×MIC
Minimal Bactericidal Concentration (greater than 1000-fold decrease in cell viability), antibiotic alone ([3]; S. aureus, not by NCCLS procedure): 16 to 32 µg/mL
MIC ([3]; Staphylococcus aureus, SA1199): 1 µg/mL
MBC [3, 10]: 16 to 32 µg/mL
MBC [3, 11]: > 8 µg/mL
MBC^b = MBC in the presence of 5 μg/ml of INF 401 [3, 9]: 1
MIC [3, 12]: 1 µg/mL

Structure (SMILES): CC[n+]1c(-c2ccccc2)c2cc(N)ccc2c2ccc(N)cc21 [Ethidium bromide]
MBC^b = MBC in the presence of 10 μg/ml of INF 402 [4]: >128
MIC ([3]; Staphylococcus aureus, SA1199): 16 µg/mL
MBC [3, 10]: > 128 µg/mL
MBC [3, 11]: > 128 µg/mL
MBC^b = MBC in the presence of 5 μg/ml of INF 401 [3, 9]: >128
MIC [3, 12]: 16 µg/mL

Structure (SMILES): O=C(O)C(NCCNC(C(=O)O)c1ccccc1O)c1ccccc1O (stereo not drawn) [EDDHA]
effect of iron chelator on killing by INF 401 [7]: completely ablate killing

MIC [3, 14]: 32 µg/mL
Structure (SMILES): N[C@@H]1CON=C1O [Cycloserine]
MBC [3, 13]: > 256 µg/mL
MBC^b = MBC in the presence of 5 μg/ml of INF 401 [3, 9]: 32

Structure (SMILES): CCC[C@@H]1C[C@@H](C(=O)N[C@@H]([C@H]2O[C@H](SC)[C@H](O)[C@@H](O)[C@H]2O)[C@H](C)Cl)N(C)C1 [Clindamycin]
MBC^b = MBC in the presence of 10 μg/ml of INF 402 [4]: 2
MIC ([8]; Staphylococcus aureus, ATCC29213, planktonic population): < 1 µg/mL
MBEC ([8]; biofilm population): 256 µg/mL
reduction in cell viability, antibiotic in combination with INF 401 ([6]; antibiotic 1×MIC + 5 μg/ml INF 401): 3 log10
bactericidal concentration of antibiotic alone as multiple of MIC ([3]; S. aureus): 4 ×MIC
MBC [3, 13]: 4 µg/mL
MIC [3, 14]: 0.25 µg/mL
MBC^b = MBC in the presence of 5 μg/ml of INF 401 [3, 9]: 0.125
MBC^a = MBC in the absence of INF 401 [3, 12]: 4 µg/mL
MIC [3, 12]: 0.25 µg/mL

MIC [3, 14]: 1 µg/mL
Structure (SMILES): [H]/N=C(\N/C(=N/[H])NCCCCCCNC(=N)NC(=N)Nc1ccc(Cl)cc1)Nc1ccc(Cl)cc1 [Chlorhexidine]
MBC [3, 13]: 4 µg/mL
MBC^b = MBC in the presence of 5 μg/ml of INF 401 [3, 9]: 1
